Laboratory results taken from US6395760B1, “Pesticidal 1-arylpyrazoles” (Rhone-Poulenc Inc., priority 1997, dated 2002).

Key:
Design in all cases: key: ‘X’ means highly active; ‘+’ means moderately active; ‘−’ means low activity
Schizaphis graminum = assay: Soil drench test (systemic activity), greenbug on sorghum plants; assay type: in vivo; details: 10.0 ppm soil concentration by weight, counts at 5 DAT vs untreated control
Text: (§1) The Soil Drench Test (Systemic Activity) Cotton and sorghum plants were established in pots. One day prior to treatment, each pot was infested with about 25 aphids of a mixed population. Cotton plants were infested with aphids and sorghum plants were infested with the greenbug. The selected compound of formula (I) was applied to the soil surface in a dilution that delivered the equivalent of 10.0 ppm soil concentration by weight. Aphid counts were obtained at 5 DAT (=days after treatment). The number of aphids on the treated plants was compared to the number of those on the untreated control plants.

Aphis gossypii = assay: Soil drench test (systemic activity), aphids on cotton plants; assay type: in vivo; details: 10.0 ppm soil concentration by weight, aphid counts at 5 DAT vs untreated control
Text: as §1

Musca domestica = assay: Housefly bait/contact test; assay type: in vivo; details: 50 ppm in sugar water bait solution, adult houseflies, mortality after 24 hours
Text: The Housefly Bait/Contact Test About 25 four to six-day-old adult houseflies were anesthetized and placed in a cage with a sugar water bait solution containing the compound. The concentration of the selected compound of formula (I) in the bait solution was 50 ppm.

A. gossypii = assay: Foliar application (contact test) with aphids; assay type: in vivo, Aphis gossypii; details: 100 ppm formulation sprayed to runoff on aphid-infested cotton plants, dead aphids counted three days after treatment
Text: Foliar Application (Contact Test) with Aphids Aphid-infested cotton plants were placed on a revolving turntable, and sprayed to runoff with a 100 ppm formulation of the selected compound of formula (I). The treated, A. gossypii-infested plants were held for three days after treatment, after which the dead aphids were counted.

Row | SMILES | Systemic activity on greenbugs (Schizaphis graminum) | Systemic activity on aphids (Aphis gossypii) | Activity on house flies by contact (Musca domestica) | Foliar activity on aphids (A. gossypii)
1 | C[S+]([O-])c1c(C2(C)OCC(CO)O2)nn(-c2c(Cl)cc(C(F)(F)F)cc2Cl)c1N (centres unmarked) [Compound 26] | + | − | X | −
2 | CC1COC(C)(c2nn(-c3c(Cl)cc(C(F)(F)F)cc3Cl)c(N)c2[S+](C)[O-])O1 (centres unmarked) [Compound 11] | X | X | X | X
